# Laboratory results as given in PubChem BioAssay AID549 (SRMLSC, 2006).
# The source made the active and inactive calls.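 How the source made its calls: active means clearly stronger inhibition of phosphomevalonate kinase than of the coupling enzymes alone in a parallel counterscreen; inactive means the rest.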
# Biological target: phosphomevalonate kinase (Streptococcus pneumoniae D39)
# Assay: phosphomevalonate kinase inhibition IC50 – biochemical, mevalonate pathway, coupling enzyme counter-screen, dose response (AID 549)
# Details: PMK enzyme, PK/LDH coupled NADH absorbance 340 nm
row,Compound,outcome
1,COc1ccc(CNC(=O)C2CCN(S(=O)(=O)c3cccc4cccnc34)CC2)cc1,inactive
2,CC(=O)N1CCN(c2nc3cc4c(cc3nc2NS(=O)(=O)c2ccccc2)OCCO4)CC1,inactive
3,Cc1nc(NC(=O)c2ccco2)sc1C(=O)Nc1ccc(Br)cc1,inactive
4,CC1(C(=O)NC2CCCCCCC2)CCC(=O)N1Cc1ccco1 (stereo not drawn),inactive
5,CCOC(=O)C1=C(N)OC2=C(C(=O)CCC2)C1c1ccc(C)s1 (stereo not drawn),inactive
6,Cc1ccc(C(c2nnnn2CC2CCCO2)N2CCN(C(=O)c3ccco3)CC2)cc1 (stereo not drawn),inactive
7,CCOc1ccc(C2c3c(oc4cc(C)c(C)cc4c3=O)C(=O)N2CCCN(C)C)cc1OC (stereo not drawn),inactive
8,CCC(C)(C)NC(=O)C(c1ccccc1F)N(Cc1ccco1)C(=O)c1csnn1 (stereo not drawn),inactive
9,CC(C)(C)NC(=O)CSc1ncnc2c1nnn2Cc1ccccc1Cl,inactive
10,O=c1c[n+]([O-])c2ccccc2n1OCc1c(F)cccc1F,inactive
11,c1ccc(CCn2nnnc2C(c2cccs2)N2CCOCC2)cc1 (stereo not drawn),inactive
12,Cc1nn(Cc2ccccc2)c2c1C(c1ccncc1)C(C#N)=C(N)O2 (stereo not drawn),inactive
13,COc1ccc(N2CCN(CCNS(=O)(=O)c3cccc4nsnc34)CC2)cc1,inactive
14,CCOC(=O)C1CCN(C(=O)C2CCN(S(=O)(=O)N3CCCC3)CC2)CC1,inactive
15,CCOC(=O)N1CCC(NC(=O)CSc2cc(=O)n(C)c3ccccc23)CC1,inactive
16,CC(=O)NC1N=C(C)N(c2ccccc2)C1=O (stereo not drawn),inactive
17,Cc1nnc(SCC(=O)N2CC(=O)Nc3ccccc32)n1-c1ccccc1,inactive
18,O=C(C1CCN(Cc2ccc(OCc3ccccc3)cc2)CC1)N1CCCC1,inactive
19,Cc1n[nH]c(=S)n(/N=C/c2ccccn2)c1=O,inactive
20,O=C(Cn1cc(C(F)(F)F)ccc1=O)N1CCN(S(=O)(=O)c2ccccc2)CC1,inactive
21,CS(=O)(=O)N1CCCC(C(=O)NCCc2ccc(Cl)cc2)C1 (stereo not drawn),inactive
22,CCc1nnc(NC(=O)CSc2nnc(Cc3cccn3C)n2C)s1,inactive

row,Compound,outcome
1,Cc1occc1C(=O)Nc1nnc(C(F)(F)F)s1,inactive
2,O=C(CSCc1cccc(F)c1)N1CCN(c2ccccc2)CC1,inactive
3,O=C(Nn1c(C2CC2)nc2ccccc2c1=O)c1ccco1,inactive
4,CCN(CC)C(=O)NC1CC2CCCC(C1)N2Cc1ccccc1 (stereo not drawn),inactive
5,OC1(CN2CCOCC2)C2CN3CCN(C2)CC1(c1ccccc1)C3 (stereo not drawn),inactive
6,CC(C)(C)NC(=O)CSc1nnc(-c2ccccn2)n1-c1ccccc1,inactive
7,CCOC(=O)C(CCc1nnc(N)s1)C(=O)OCC,inactive
8,CC(CC(=O)O)NCC1COc2ccccc2O1 (stereo not drawn),inactive
9,CCN1C(=O)/C(=C2/Sc3ccc(OC)cc3N2C)SC1=Nc1ccc(C(C)=O)cc1,inactive
10,CCOC(=O)c1ccc(NC(=O)CSc2nc(C)cc(=O)[nH]2)cc1,inactive
11,Cc1ccc(Cl)cc1N1CCN(Cc2nnnn2C2CCCCC2)CC1,inactive
12,CCn1c(COc2ccccc2C)nnc1SCC(=O)N1CCCCC1,inactive
13,CC12C=CC3(CN(Cc4ccccc4)C(=O)C3C1C(=O)NC1CC1)O2 (stereo not drawn),inactive
14,CC(=O)c1ccc(Oc2ncnc3sccc23)c(CN2CCOCC2)c1,inactive
15,CC(C)OC(=O)c1cccnc1SCc1cc(=O)n2ccccc2n1,inactive
16,CCOC(=O)N1CCN(C(=O)Cn2nc(-c3ccc(Cl)cc3)ccc2=O)CC1,inactive
17,CS(=O)(=O)N1CCCC(C(=O)NCc2cccs2)C1 (stereo not drawn),inactive
18,O=C(c1cc(-c2ccco2)on1)N1CCCc2ccccc21,inactive
19,Cc1ccc(-n2c(CSc3nc(C)cc(C)n3)nnc2SCC(=O)NCc2ccco2)cc1,inactive
20,CC(C)OC(=O)CCC1(C(=O)O)CCC(=O)NC1 (stereo not drawn),inactive
21,CC(C)C(C(=O)NCC1CCCO1)N(Cc1ccco1)C(=O)CNS(=O)(=O)c1ccc(F)cc1 (stereo not drawn),inactive
22,CCOc1ccc(CNC(=O)C2CCN(S(=O)(=O)N3CCCC3)CC2)cc1OC,inactive

row,Compound,outcome
1,CC(C)(C)NS(=O)(=O)c1ccc(NS(=O)(=O)c2ccc(F)cc2)cc1,inactive
2,O=c1oc2ccccc2n1CCn1c2ccccc2c2nc3ccccc3nc21,inactive
3,CCn1c(SCC(=O)c2[nH]c(C)c(C(C)=O)c2C)nnc1-c1cccs1,inactive
4,O=C(c1ccc2ccccc2c1)N1CCN(c2ccc(O)cc2)CC1,inactive
5,O=C(O)CCS(=O)(=O)Cc1ccccc1F,inactive
6,Cc1cc(C)n2c(SCC(=O)N(C)C3CCS(=O)(=O)C3)nnc2n1 (stereo not drawn),inactive
7,Cc1nc(SC2C=CS(=O)(=O)C2)n[nH]1 (stereo not drawn),inactive
8,COc1ccc2c(c1OC)CN(C)CCc1cc3c(cc1C(O)C2)OCO3 (stereo not drawn),inactive
9,C=CCNC(=O)C1CCCN(S(C)(=O)=O)C1 (stereo not drawn),inactive
10,CCCN(C(=O)c1ccccc1N)c1c(C)n(C)n(-c2ccccc2)c1=O,inactive
11,Cc1cc(NCCCN2CCOCC2)n2nc(C)c(-c3ccc(F)cc3)c2n1,inactive
12,CCNc1nc(NC(C)(C)C)nc(N(C#N)CC)n1,inactive
13,O=C(CNC(=O)c1cccs1)NCCN1CCN(c2ccccc2F)CC1,inactive
14,CCCOc1ccc(C2C(=O)N(C3CCCCC3)CC(=O)N2CCCOCC)cc1OC (stereo not drawn),inactive
15,COCCNC(=O)c1ccc2c(c1)NC(=O)CS2,inactive
16,C[C@]12CC[C@@H]3c4ccc(OS(=O)(=O)O)cc4CC[C@H]3[C@@H]1CCC2=O,inactive
17,CN(C)c1ccc(CNCCC2(O)CCOC(C)(C)C2)cc1 (stereo not drawn),inactive
18,CC(=O)Nc1c(O)n(C)c2ccccc12,inactive
19,CS(=O)(=O)N1CCCC(C(=O)NCc2ccccn2)C1 (stereo not drawn),inactive
20,CC(Sc1ncc(C#N)c(N)n1)C(=O)Nc1ccccc1 (stereo not drawn),inactive
21,CCOC(=O)CC(=O)CSc1nnc2c(n1)[nH]c1ccccc12,inactive
22,CCOC(=O)c1c(NC(=O)c2cc(C3CC3)on2)sc2c1CCCC2,inactive

row,Compound,outcome
1,CCOC(=O)C1=C(C)Nc2ccccc2N=C1NC(=O)CCCN1C(=O)c2ccccc2C1=O,inactive
2,Cc1ccc(C(=O)c2cc3c(cc2N)OCCO3)cc1,inactive
3,Cc1sc2ncnc(NCC(c3ccco3)N(C)C)c2c1C (stereo not drawn),inactive
4,CCN=c1sc(C(=O)NCCc2ccccc2)cc(=O)n1CC,inactive
5,Cc1ccsc1C1C(C(=O)O)c2ccccc2C(=O)N1C (stereo not drawn),inactive
6,Cc1nc2ccccc2n2c(O)c(CC(=O)O)cc12,inactive
7,Cn1c(SCC(=O)N2CCOCC2)nnc1-c1ccc(NC(=O)c2ccccc2F)cc1,inactive
8,c1ccc2sc(SCc3ccc(-c4nnco4)cc3)nc2c1,inactive
9,Cc1cccc2cc(CN(CCN3CCCC3)C(=O)NC3CCCCC3)c(=O)[nH]c12,inactive
10,Cc1ccc(-n2nc3c(c2NC(=O)c2c(-c4ccccc4Cl)noc2C)CS(=O)(=O)C3)c(C)c1,inactive
11,O=S(=O)(Nc1ccc(S(=O)(=O)N2CCOCC2)cc1)c1ccccc1,inactive
12,CCOCCCNC(=O)C1CCN(S(=O)(=O)N(CC(C)C)CC(C)C)CC1,inactive
13,Cc1cc(C)n2nc(SCC(=O)NCc3ccco3)nc2n1,inactive
14,CCCCNc1nc2c(c(=O)n(C)c(=O)n2C)n1CCC,inactive
15,CCOc1ccc(Nc2nc(Cc3nnc(SCC(N)=O)o3)cs2)cc1,inactive
16,COC(=O)C1=C(C)OC(N)=C(C#N)C1c1cc(OC)c(OCC(N)=O)cc1Cl (stereo not drawn),inactive
17,COCCn1c(C)cc2c(c1=O)C(c1ccccc1F)C(C#N)=C(N)O2 (stereo not drawn),inactive
18,O=C(NCCCNC(=O)c1ccccn1)c1ccccn1,inactive
19,Clc1ccc(C(c2nnnn2C2CCCC2)N2CCN(Cc3ccncc3)CC2)cc1 (stereo not drawn),inactive
20,Cc1cc(C)n2nc(SCc3cc(=O)n4c(C)cccc4n3)nc2n1,inactive
21,CC(c1ccccc1)C(CC(=O)O)C(=O)NC1CCCCC1 (stereo not drawn),inactive
22,CCC(=O)N(Cc1ccco1)c1nc(-c2ccccc2)cs1,inactive

row,Compound,outcome
1,Cc1ccc(CN2CCN(C(=O)C3CCC3)CC2)cc1,inactive
2,CCC(C)(C)n1nnnc1C(c1cccnc1)N1CCCc2ccccc21 (stereo not drawn),inactive
3,CCOC(=O)c1c(C)n(C)c2ccc(OC)c(NS(=O)(=O)c3ccc(Cl)s3)c12,inactive
4,CCNC(=O)CN(c1ccc(C)cc1)S(=O)(=O)c1ccc(SC)cc1,inactive
5,Cc1nnc(SCC(=O)Nc2nsc(-c3ccccc3)n2)s1,inactive
6,CCOC(=O)c1cnc(SCC(=O)N2CCN(C(=O)c3ccco3)CC2)nc1N,inactive
7,Cn1nnnc1Sc1ncnc2scc(-c3ccc(F)cc3)c12,inactive
8,CCC1Oc2ccc(C)cc2N(CC(=O)NCCN2CCCCCC2)C1=O (stereo not drawn),inactive
9,CCC1CCCCN1CCCNC(=O)Cn1nc(-c2ccccc2)ccc1=O (stereo not drawn),inactive
10,O=C1CC(c2ccccc2)CC(O)=C1C=NCC1CCCO1 (stereo not drawn),inactive
11,COc1ccc(OC)c(NC(=O)CNC(=O)Cn2ccc3ccccc3c2=O)c1,inactive
12,Cc1nnc(SCC(=O)Nc2ncc(Cc3ccc(F)cc3)s2)n1N,inactive
13,Cc1noc(C)c1CSc1nnc(-c2ccncc2)n1-c1cccc(Cl)c1C,inactive
14,CCn1c(SC(=O)NC2CCCCC2)nnc1-c1cccs1,inactive
15,COC(=O)c1cc(=O)nc2sccn12,inactive
16,CCn1c2ccccc2c2cc(CN3CCN(C(=O)c4ccco4)CC3)ccc21,inactive
17,CCCC(=O)Nc1cccc(NC(=O)CN2CCN(c3ccccc3OC)CC2)c1,inactive
18,O=C(c1n[nH]c(=O)c2ccccc12)N1CCN(C2c3ccccc3-c3ccccc32)CC1,inactive
19,CN(C)c1ccc(-c2nc3ccccc3n2C)cc1,inactive
20,CC(C)OC(=O)C1C(=O)CC(C)(O)C(C(=O)OC(C)C)C1c1cccnc1 (stereo not drawn),inactive
